Data reported in patent US6884814B2, “Phenyl benzisoxazoles as estrogenic agents” (Wyeth, priority 2001, dated 2005).

Legend:
human ERβ = molecular target: T1, human ERβ (Homo sapiens, UniProt Q92731); test: Radioligand binding competition with [3H]-17β-estradiol, ERβ; conditions: human ERβ ligand binding domain, E. coli lysate, read-out: ER-β IC50
T1 construct: M214-Q530 of human ERβ; Flag (C); made in house; host or cells: E. coli BL21(DE3), clarified lysate

human ERα = molecular target: T2, human ERα (Homo sapiens, UniProt P03372); test: Radioligand binding competition with [3H]-17β-estradiol, ERα; conditions: human ERα ligand binding domain, E. coli lysate, read-out: ER-α IC50
T2 construct: amino acids M250-V595 of human ERα; His (N); made in house; host or cells: E. coli BL21(DE3), clarified lysate
T2 sequence (P03372 250-595): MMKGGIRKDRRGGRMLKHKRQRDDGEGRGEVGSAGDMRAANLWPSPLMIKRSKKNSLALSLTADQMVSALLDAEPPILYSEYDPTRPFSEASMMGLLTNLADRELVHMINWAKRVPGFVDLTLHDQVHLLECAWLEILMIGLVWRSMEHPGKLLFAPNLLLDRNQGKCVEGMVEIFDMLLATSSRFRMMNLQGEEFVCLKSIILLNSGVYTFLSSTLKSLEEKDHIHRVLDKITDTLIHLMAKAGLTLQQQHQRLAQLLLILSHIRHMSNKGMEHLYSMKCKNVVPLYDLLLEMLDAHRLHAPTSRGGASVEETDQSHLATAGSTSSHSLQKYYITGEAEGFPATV

T1 sequence (Q92731 214-530): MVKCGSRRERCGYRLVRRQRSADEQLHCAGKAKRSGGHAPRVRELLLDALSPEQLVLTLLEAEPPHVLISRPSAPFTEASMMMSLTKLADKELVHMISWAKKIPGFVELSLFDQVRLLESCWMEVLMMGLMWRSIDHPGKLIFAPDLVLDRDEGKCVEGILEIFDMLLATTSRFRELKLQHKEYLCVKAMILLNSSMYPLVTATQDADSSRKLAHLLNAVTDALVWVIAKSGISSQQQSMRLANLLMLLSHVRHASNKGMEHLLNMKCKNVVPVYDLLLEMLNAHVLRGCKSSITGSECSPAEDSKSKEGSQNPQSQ

SMILES	IC50 (human ERβ)	IC50 (human ERα)	melting point
CCCc1cc(-c2noc3cc(O)ccc23)c(CC(C)C)cc1O [Example 4, 3-(4-Hydroxy-2-isobutyl-5-propylphenyl)-1,2-benzisoxazol-6-ol]	20 nM	38 nM	
Oc1ccc2c(-c3ccccc3O)noc2c1 [Example 9, 3-(2-Hydroxyphenyl)-1,2-benzisoxazol-6-ol]		5000 nM	
Oc1ccc(O)c(-c2noc3cc(O)ccc23)c1 [Example 10, 2-(6-Hydroxy-1,2-benzisoxazol-3-yl)benzene-1,4-diol]	254 nM	3000 nM	215 to 217 °C
Oc1ccc(-c2noc3c(Br)cc(O)cc23)cc1 [Example 13, 7-Bromo-3-(4-hydroxyphenyl)-1,2-benzisoxazol-5-ol]	208 nM	2000 nM	267 to 270 °C
